Laboratory results taken from PMC4862738 (Biomacromolecules, 2016).

Target: wt-PhaCCs (Chromobacterium sp. USM2, UniProt E1APK1)
Experiment: continuous DTNB assay of CoA release, […] nm
Assay type: biochemical
Settings: KPi 100 mM pH 7.8, 30 °C, BSA 0.2 mg/mL, DTNB 0.3 mM, Triton X-100 50 mg/L

## C[C@@H](O)CC(=O)SCCNC(=O)CCNC(=O)[C@H](O)C(C)(C)COP(=O)(O)OP(=O)(O)OC[C@H]1O[C@@H](n2cnc3c(N)ncnc32)[C@H](O)[C@@H]1OP(=O)(O)O [1a, HBCoA]
  continuous DTNB assay of CoA release, 412 nm: addition of BSA would increase SA of PhaCCs with HBCoA
